Results as given in ChEMBL document CHEMBL5223095, “Structure activity relationship of N-1 substituted 1,5-naphthyrid-2-one analogs of oxabicyclooctane-linked novel bacterial topoisomerase inhibitors as broad-spectrum antibacterial agents (Part-9)” (Bioorg Med Chem Lett, 2022).
Converted amounts (≈) assume the structure as drawn.

Assays:
Assay type in all cases: functional
Escherichia coli = assay: Antibacterial activity against Escherichia coli ATCC 25922 assessed as bacterial growth inhibition by CLSI protocol agar-based assay
Staphylococcus aureus = assay: Antibacterial activity against methicillin-resistant Staphylococcus aureus OITII-971 assessed as bacterial growth inhibition by CLSI protocol agar-based assay
Enterococcus faecium = assay: Antibacterial activity against Vanomycin-resistant Enterococcus faecium assessed as bacterial growth inhibition by CLSI protocol agar-based assay
Acinetobacter baumannii = assay: Antibacterial activity against Acinetobacter baumannii IID876 assessed as bacterial growth inhibition by CLSI protocol agar-based assay
Pseudomonas aeruginosa = assay: Antibacterial activity against Pseudomonas aeruginosa PAO1 assessed as bacterial growth inhibition by CLSI protocol agar-based assay
Streptococcus pneumoniae = assay: Antibacterial activity against Streptococcus pneumoniae IID553 assessed as bacterial growth inhibition by CLSI protocol agar-based assay

Row | Compound | MIC (Escherichia coli) [µg/mL] | MIC (Staphylococcus aureus) [µg/mL] | MIC (Enterococcus faecium) [µg/mL] | MIC (Acinetobacter baumannii) [µg/mL] | MIC (Pseudomonas aeruginosa) [µg/mL] | MIC (Streptococcus pneumoniae) [µg/mL]
1 | COc1ccc2ncc(F)c(CCC34CCC(NCc5ccc6c(n5)NC(=O)CO6)(CC3)CO4)c2n1 | 1 (≈ 2.03 µM) | 0.016 (≈ 0.0324 µM) | – | – | – | –
2 | O=C1COc2ccc(CNC34CCC(C[C@]5(O)Cn6c(=O)ccc7ncc(F)c5c76)(CC3)OC4)nc2N1 | 4 (≈ 7.88 µM) | 0.25 (≈ 0.493 µM) | – | – | – | –
3 | O=c1ccc2ncc(F)c3c2n1C[C@@]3(O)CC12CCC(NCc3cc4c(cn3)OCCO4)(CC1)CO2 | 16 (≈ 32.4 µM) | 0.5 (≈ 1.01 µM) | – | – | – | –
4 | O=C1COc2ccc(CNC34CCC(CCc5c(F)cnc6ccc(=O)n(C/C=N/O)c56)(CC3)OC4)nc2N1 | 4 (≈ 7.45 µM) | 0.25 (≈ 0.466 µM) | 4 (≈ 7.45 µM) | 2 (≈ 3.73 µM) | 8 (≈ 14.9 µM) | 0.5 (≈ 0.932 µM)
5 | O=C(NC12CCC(CCc3c(F)cnc4ccc(=O)n(CCO)c34)(CC1)OC2)c1cc2c(cn1)OCCO2 | > 32 | 1 (≈ 1.91 µM) | 16 (≈ 30.5 µM) | 32 (≈ 61 µM) | > 32 | 2 (≈ 3.81 µM)
6 | O=c1ccc2ncc(F)c(CCC34CCC(NCc5cnc(-c6cccnc6)s5)(CC3)CO4)c2n1CCO | > 16 | > 16 | > 16 | > 16 | > 32 | > 16
7 | O=C(O)Cn1c(=O)ccc2ncc(F)c(CCC34CCC(NCc5ccc6c(n5)NC(=O)CO6)(CC3)CO4)c21 | > 64 | 16 (≈ 29.8 µM) | > 64 | > 64 | > 64 | 64 (≈ 119 µM)
8 | O=C1COc2ccc(C(=O)NC34CCC(CCc5c(F)cnc6ccc(=O)n(CCO)c56)(CC3)OC4)nc2N1 | 16 (≈ 29.8 µM) | 0.125 (≈ 0.233 µM) | 4 (≈ 7.44 µM) | 4 (≈ 7.44 µM) | 32 (≈ 59.5 µM) | 1 (≈ 1.86 µM)
9 | CCOC(=O)Cn1c(=O)ccc2ncc(F)c(CCC34CCC(NCc5ccc6c(n5)NC(=O)CO6)(CC3)CO4)c21 | 8 (≈ 14.1 µM) | 0.063 (≈ 0.111 µM) | 8 (≈ 14.1 µM) | 1 (≈ 1.77 µM) | 32 (≈ 56.6 µM) | 1 (≈ 1.77 µM)
10 | O=c1ccc2ncc(F)c(CCC34CCC(NCc5cc6c(cn5)OCCC6)(CC3)CO4)c2n1CCO | 8 (≈ 15.7 µM) | 0.063 (≈ 0.124 µM) | 4 (≈ 7.86 µM) | 1 (≈ 1.97 µM) | > 64 | 0.25 (≈ 0.492 µM)
11 | CC(C)(O)Cn1c(=O)ccc2ncc(F)c(CCC34CCC(NCc5ccc6c(n5)NC(=O)CO6)(CC3)CO4)c21 | > 64 | 8 (≈ 14.5 µM) | > 64 | 64 (≈ 116 µM) | > 64 | 64 (≈ 116 µM)
12 | O=c1ccc2ncc(F)c(CCC34CCC(NCc5cnc(-c6ccncc6)s5)(CC3)CO4)c2n1CCO | > 32 | > 32 | > 32 | > 32 | > 32 | > 32
13 | O=c1ccc2ncc(F)c(CCC34CCC(NCc5cnc(-c6ncccn6)s5)(CC3)CO4)c2n1CCO | > 16 | 1 (≈ 1.86 µM) | > 16 | > 16 | > 32 | 4 (≈ 7.45 µM)
14 | O=C1COc2ccc(CNC34CCC(CCc5c(F)cnc6ccc(=O)n(CCO)c56)(CC3)OC4)nc2N1 | 2 (≈ 3.82 µM) | 0.063 (≈ 0.12 µM) | 2 (≈ 3.82 µM) | 0.5 (≈ 0.955 µM) | 8 (≈ 15.3 µM) | 0.5 (≈ 0.955 µM)
15 | CN(C)CCn1c(=O)ccc2ncc(F)c(CCC34CCC(NCc5ccc6c(n5)NC(=O)CO6)(CC3)CO4)c21 | 1 (≈ 1.82 µM) | 0.5 (≈ 0.908 µM) | 16 (≈ 29.1 µM) | 0.5 (≈ 0.908 µM) | 8 (≈ 14.5 µM) | 1 (≈ 1.82 µM)
16 | O=C1COc2ccc(CNC34CCC(CCc5c(F)cnc6ccc(=O)n(CCN7CCOCC7)c56)(CC3)OC4)nc2N1 | > 16 | 1 (≈ 1.69 µM) | 16 (≈ 27 µM) | 8 (≈ 13.5 µM) | > 16 | 2 (≈ 3.37 µM)
17 | N#CCn1c(=O)ccc2ncc(F)c(CCC34CCC(NCc5ccc6c(n5)NC(=O)CO6)(CC3)CO4)c21 | 1 (≈ 1.93 µM) | 0.016 (≈ 0.0309 µM) | 2 (≈ 3.86 µM) | 0.25 (≈ 0.482 µM) | 4 (≈ 7.71 µM) | 0.25 (≈ 0.482 µM)
18 | O=C(NC12CCC(CCc3c(F)cnc4ccc(=O)n(CCO)c34)(CC1)OC2)c1cc2c(cn1)OCCC2 | > 32 | 0.5 (≈ 0.957 µM) | 16 (≈ 30.6 µM) | 8 (≈ 15.3 µM) | > 32 | 1 (≈ 1.91 µM)
19 | O=c1ccc2ncc(F)c(CCC34CCC(NCc5ccc6nsnc6c5)(CC3)CO4)c2n1CCO | 32 (≈ 62.8 µM) | 0.125 (≈ 0.245 µM) | 8 (≈ 15.7 µM) | 4 (≈ 7.85 µM) | > 64 | 1 (≈ 1.96 µM)
20 | O=C1COc2ccc(CNC34CCC(CCc5ccnc6ccc(=O)n(CCO)c56)(CC3)OC4)nc2N1 | 8 (≈ 15.8 µM) | 2 (≈ 3.96 µM) | 16 (≈ 31.6 µM) | 8 (≈ 15.8 µM) | 32 (≈ 63.3 µM) | 4 (≈ 7.91 µM)
21 | CN(C)C(=O)Cn1c(=O)ccc2ncc(F)c(CCC34CCC(NCc5ccc6c(n5)NC(=O)CO6)(CC3)CO4)c21 | 32 (≈ 56.7 µM) | 1 (≈ 1.77 µM) | 32 (≈ 56.7 µM) | 8 (≈ 14.2 µM) | 64 (≈ 113 µM) | 4 (≈ 7.08 µM)

Row | Compound | MIC (Escherichia coli) [µg/mL] | MIC (Staphylococcus aureus) [µg/mL] | MIC (Enterococcus faecium) [µg/mL] | MIC (Acinetobacter baumannii) [µg/mL] | MIC (Pseudomonas aeruginosa) [µg/mL] | MIC (Streptococcus pneumoniae) [µg/mL]
22 | NCCn1c(=O)ccc2ncc(F)c(CCC34CCC(NCc5ccc6c(n5)NC(=O)CO6)(CC3)CO4)c21 | 1 (≈ 1.91 µM) | 1 (≈ 1.91 µM) | 8 (≈ 15.3 µM) | 16 (≈ 30.6 µM) | 2 (≈ 3.83 µM) | 1 (≈ 1.91 µM)
23 | N#Cc1cnc2ccc(=O)n(CCO)c2c1CCC12CCC(NCc3ccc4c(n3)NC(=O)CO4)(CC1)CO2 | 4 (≈ 7.54 µM) | 0.125 (≈ 0.236 µM) | 4 (≈ 7.54 µM) | 1 (≈ 1.88 µM) | 16 (≈ 30.2 µM) | 1 (≈ 1.88 µM)
24 | C[C@@H]1CCc2cc(CNC34CCC(CCc5c(F)cnc6ccc(=O)n(CCO)c56)(CC3)OC4)ncc2O1 | > 64 | 1 (≈ 1.91 µM) | 32 (≈ 61.2 µM) | 64 (≈ 122 µM) | > 64 | 1 (≈ 1.91 µM)
25 | O=c1ccc2ncc(F)c(CCC34CCC(NCc5cc6c(cn5)OCCO6)(CC3)CO4)c2n1CCO | 16 (≈ 31.3 µM) | 0.125 (≈ 0.245 µM) | 2 (≈ 3.92 µM) | 4 (≈ 7.83 µM) | > 16 | 0.5 (≈ 0.979 µM)
26 | O=c1ccc2ncc(F)c(CCC34CCC(NCc5csc(-c6cccs6)n5)(CC3)CO4)c2n1CCO | 64 (≈ 118 µM) | 0.5 (≈ 0.925 µM) | 16 (≈ 29.6 µM) | 32 (≈ 59.2 µM) | > 32 | 1 (≈ 1.85 µM)
27 | O=c1ccc2ncc(F)c(CCC34CCC(NC/C=C/c5cc(F)ccc5F)(CC3)CO4)c2n1CCO | 2 (≈ 3.89 µM) | 0.031 (≈ 0.0604 µM) | 2 (≈ 3.89 µM) | 0.125 (≈ 0.243 µM) | 8 (≈ 15.6 µM) | 0.063 (≈ 0.123 µM)
28 | O=c1ccc2ncc(F)c(CCC34CCC(NCc5cnc(C6CCCCC6)s5)(CC3)CO4)c2n1CCO | > 32 | > 32 | > 32 | > 32 | > 16 | > 32
29 | CNC(=O)Cn1c(=O)ccc2ncc(F)c(CCC34CCC(NCc5ccc6c(n5)NC(=O)CO6)(CC3)CO4)c21 | 32 (≈ 58.1 µM) | 4 (≈ 7.26 µM) | 16 (≈ 29.1 µM) | 64 (≈ 116 µM) | 32 (≈ 58.1 µM) | 1 (≈ 1.82 µM)
30 | O=c1ccc2ncc(F)c(CCC34CCC(NCc5cnc(-c6ccsc6)s5)(CC3)CO4)c2n1CCO | > 32 | 2 (≈ 3.7 µM) | > 32 | > 32 | > 32 | 2 (≈ 3.7 µM)
31 | COc1ccc2nc(CNC34CCC(CCc5c(F)cnc6ccc(=O)n(CCO)c56)(CC3)OC4)c(F)cc2n1 | > 16 | > 16 | > 16 | > 16 | > 16 | > 16
32 | C[C@H]1CCc2cc(CNC34CCC(CCc5c(F)cnc6ccc(=O)n(CCO)c56)(CC3)OC4)ncc2O1 | 64 (≈ 122 µM) | 1 (≈ 1.91 µM) | 32 (≈ 61.2 µM) | 16 (≈ 30.6 µM) | > 64 | 2 (≈ 3.83 µM)
33 | Cn1cc(-c2ncc(CNC34CCC(CCc5c(F)cnc6ccc(=O)n(CCO)c56)(CC3)OC4)s2)cn1 | > 32 | 2 (≈ 3.71 µM) | > 32 | > 32 | > 32 | 8 (≈ 14.9 µM)
34 | O=c1ccc2nc(CNC34CCC(CCc5c(F)cnc6ccc(=O)n(CCO)c56)(CC3)OC4)c(F)cc2[nH]1 | > 16 | > 16 | > 16 | > 16 | > 16 | > 16
35 | O=c1ccc2ncc(F)c(CCC34CCC(NCc5ccc6nonc6c5)(CC3)CO4)c2n1CCO | > 64 | 2 (≈ 4.05 µM) | 64 (≈ 130 µM) | 64 (≈ 130 µM) | > 64 | 32 (≈ 64.8 µM)
36 | COc1ccc2nc(CNC34CCC(CCc5c(F)cnc6ccc(=O)n(CCO)c56)(CC3)OC4)c(F)c(C)c2n1 | 32 (≈ 56.6 µM) | 32 (≈ 56.6 µM) | 32 (≈ 56.6 µM) | 32 (≈ 56.6 µM) | 32 (≈ 56.6 µM) | 32 (≈ 56.6 µM)
37 | CS(=O)(=O)NCCn1c(=O)ccc2ncc(F)c(CCC34CCC(NCc5ccc6c(n5)NC(=O)CO6)(CC3)CO4)c21 | 16 (≈ 26.6 µM) | 0.5 (≈ 0.832 µM) | 8 (≈ 13.3 µM) | 16 (≈ 26.6 µM) | 32 (≈ 53.3 µM) | 1 (≈ 1.66 µM)
38 | NC(=O)Cn1c(=O)ccc2ncc(F)c(CCC34CCC(NCc5ccc6c(n5)NC(=O)CO6)(CC3)CO4)c21 | 32 (≈ 59.6 µM) | 4 (≈ 7.45 µM) | 64 (≈ 119 µM) | 64 (≈ 119 µM) | 16 (≈ 29.8 µM) | 4 (≈ 7.45 µM)
39 | O=c1ccc2ncc(F)c(CCC34CCC(NC[C@@H]5C[C@H]5c5cc(F)ccc5F)(CC3)CO4)c2n1CCO | 64 (≈ 121 µM) | 0.5 (≈ 0.948 µM) | 16 (≈ 30.3 µM) | 32 (≈ 60.7 µM) | > 64 | 1 (≈ 1.9 µM)
40 | O=c1ccc2ncc(F)c(CCC34CCC(NCc5cnc(-c6ccccn6)s5)(CC3)CO4)c2n1CCO | > 32 | > 32 | > 32 | > 32 | > 16 | > 32
41 | O=c1ccc2ncc(F)c(CCC34CCC(NCCCc5cc(F)ccc5F)(CC3)CO4)c2n1CCO | 16 (≈ 31 µM) | 0.125 (≈ 0.242 µM) | 16 (≈ 31 µM) | 1 (≈ 1.94 µM) | 64 (≈ 124 µM) | 0.5 (≈ 0.97 µM)
42 | O=c1ccc2ncc(=O)n3c2n1C[C@H]3CN1CCC(NCc2cc3c(cn2)OCCC3)CC1 [GEPOTIDACIN] | 2 (≈ 4.46 µM) | 0.25 (≈ 0.557 µM) | – | – | – | –
